Test results: patent US8058427B2, “Coumarin compounds and their use for treating cancer” (National Health Research Institutes, priority 2008, dated 2011)

Tested on: Human cervical carcinoma KB cells
Test: Growth inhibition assay, KB cells (MTS)
Type: cell-based
Details: 72 h, read-out: IC50 (concentration causing 50% cell growth inhibition)
Protocol: Anticancer activities of the compounds of this invention were evaluated using a growth inhibition assay described in Kuo et al., Cancer Res. 2004, 64(13), 4621-4628.
Human cervical carcinoma KB cells were maintained in plastic dishes in DMEM medium supplemented with 10% fetal bovine serum. For in vitro treatment, tumor cells were seeded in […] of culture medium/well in 96-well plates to a final cell density of 6×10^3 cell/mL and incubated in a CO2 incubator at 37° C. for 24 h. The cells were treated with at least five different concentrations of a test compound, and incubated in a CO2 incubator at 37° C. for 72 h. The number of viable cells was estimated using MTS assay and absorbance was measured at 490 nm. For each test compound, dose-response curves were measured with at least five different drug concentrations, and the concentration causing 50% cell growth inhibition (IC50) compared with the control was calculated.

Row | SMILES | IC50
1 | CCCCCc1c(C(=O)c2ccccc2)oc2ccc3c(C)cc(=O)oc3c12 [Compound 156] | 1000 to 10000 nM
2 | COc1ccc(C(=O)c2oc3ccc4c(C)cc(=O)oc4c3c2-c2ccc(Br)cc2)cc1 [Compound 214] | 1000 to 10000 nM
3 | O=C(c1ccccc1)c1oc2ccc3c(C(F)(F)F)cc(=O)oc3c2c1-c1ccccc1 [Compound 11] | 101 to 999 nM
4 | CC(=O)c1oc2ccc3c(C)cc(=O)oc3c2c1-c1ccccc1 [Compound 119] | 1000 to 10000 nM
5 | COc1ccc(C(=O)c2oc3ccc4c(C)cc(=O)oc4c3c2-c2ccc(Cl)cc2)cc1 [Compound 223] | 1000 to 10000 nM
6 | Cc1cc(=O)oc2c1ccc1oc(C(=O)c3ccc(C(F)(F)F)cc3)c(-c3ccccc3)c12 [Compound 37] | 1000 to 10000 nM
7 | Cc1c(Cc2ccccc2)c(=O)oc2c1ccc1oc(C(=O)c3ccccc3)c(-c3ccccc3)c12 [Compound 19] | 1000 to 10000 nM
8 | Cc1cc(=O)oc2c1ccc1oc(C(=O)c3cc(Cl)sc3Cl)c(-c3ccccc3)c12 [Compound 97] | 1000 to 10000 nM
9 | Cc1ccc(C(=O)c2oc3ccc4c(C)cc(=O)oc4c3c2-c2ccc(Br)cc2)cc1 [Compound 212] | 1000 to 10000 nM
10 | Cc1cc(=O)oc2c1ccc1oc(C(=O)c3ccccc3C(F)(F)F)c(-c3ccccc3)c12 [Compound 35] | 1000 to 10000 nM
11 | Cc1cc(=O)oc2c1ccc1oc(C(=O)C3CCCCC3)c(-c3ccccc3)c12 [Compound 127] | 1000 to 10000 nM
12 | O=C(c1ccccc1)c1oc2ccc3c4c(c(=O)oc3c2c1-c1ccccc1)CCCC4 [Compound 21] | 1000 to 10000 nM
13 | Cc1cc(=O)oc2c1ccc1oc(C(=O)c3ccc(Cl)cc3)c(-c3ccc(Br)cc3)c12 [Compound 210] | 1000 to 10000 nM
14 | Cc1cc(=O)oc2c1ccc1oc(C(=O)c3ccc(OCCN4CCOCC4)cc3)c(-c3ccccc3)c12 [Compound 265] | 1000 to 10000 nM
15 | Cc1cc(=O)oc2c1ccc1oc(C(=O)c3ccc(OCCN(C)C)cc3)c(-c3ccccc3)c12 [Compound 266] | 1000 to 10000 nM
16 | O=C(c1ccccc1)c1oc2ccc3c4ccccc4c(=O)oc3c2c1-c1ccccc1 [Compound 22] | 1000 to 10000 nM

Row | SMILES | IC50
17 | Cc1cc(=O)oc2c1ccc1oc(C(=O)c3ccccc3)c(C)c12 [Compound 154] | 101 to 999 nM
18 | Cc1ccc(C(=O)c2oc3ccc4c(C)cc(=O)oc4c3c2-c2ccccc2)cc1 [Compound 41] | 101 to 999 nM
19 | Cc1cc(=O)oc2c1ccc1oc(C(=O)c3ccc(Cl)cc3)c(-c3ccccc3)c12 [Compound 49] | 101 to 999 nM
20 | Cc1cc(=O)oc2c1ccc1oc(C(=O)c3ccccc3)c(/C=C/c3ccccc3)c12 [Compound 161] | 101 to 999 nM
21 | CCN(CCO)CCCOc1cccc(C(=O)c2oc3ccc4c(C)cc(=O)oc4c3c2-c2ccccc2)c1 [Compound 251] | 101 to 999 nM
22 | Cc1cc(=O)oc2c1ccc1oc(C(=O)c3cccc(OCCCCN4CCCCC4)c3)c(-c3ccccc3)c12 [Compound 85] | 101 to 999 nM
23 | Cc1cc(=O)oc2c1ccc1oc(/C(=N/OCc3ccccc3)c3ccccc3)c(-c3ccccc3)c12 [Compound 175] | 101 to 999 nM
24 | Cc1cc(=O)oc2c1ccc1oc(C(=O)c3ccccc3O)c(-c3ccccc3)c12 [Compound 204] | 101 to 999 nM
25 | Cc1cc(=O)oc2c1ccc1oc(C(=O)c3ccc4ccccc4c3)c(-c3ccc(Br)cc3)c12 [Compound 208] | 1000 to 10000 nM
26 | Cc1cc(=O)oc2c1ccc1oc(C(=O)c3ccccc3)c(-c3cccc(F)c3)c12 [Compound 133] | 101 to 999 nM
27 | Cc1cc(=O)oc2c1ccc1oc(C(=O)c3ccc(F)c(F)c3)c(-c3ccccc3)c12 [Compound 60] | 101 to 999 nM
28 | CO/N=C(\c1ccccc1)c1oc2ccc3c(C)cc(=O)oc3c2c1-c1ccccc1 [Compound 176] | 1000 to 10000 nM
29 | Cc1cc(=O)oc2c1ccc1oc(C(=O)c3ccco3)c(-c3ccccc3)c12 [Compound 92] | 101 to 999 nM
30 | Cc1cc(=O)oc2c1cc(C)c1oc(C(=O)c3ccccc3)c(-c3ccccc3)c12 [Compound 8] | 1000 to 10000 nM
31 | Cc1cc(=O)oc2c1ccc1oc(C(=O)c3ccccc3)c(-c3ccccc3Cl)c12 [Compound 135] | 101 to 999 nM
32 | Cc1cc(=O)oc2c1ccc1oc(C(=O)c3cccc(OCCCOC4OC(CO)C(O)C(O)C4O)c3)c(-c3ccccc3)c12 (stereo not drawn) [Compound 197] | 101 to 999 nM

Next, values leading:

Row | IC50 | SMILES
33 | 101 to 999 nM | CCCCCCCCCCOc1cccc(C(=O)c2oc3ccc4c(C)cc(=O)oc4c3c2-c2ccccc2)c1 [Compound 244]
34 | 101 to 999 nM | Cc1cc2ccc3oc(C(=O)c4ccccc4)c(-c4ccccc4)c3c2oc1=O [Compound 3]
35 | 101 to 999 nM | Cc1cc(=O)oc2c1ccc1oc(C(=O)c3ccccc3)c(-c3ccccc3Br)c12 [Compound 138]
36 | 101 to 999 nM | Cc1cc(=O)oc2c1ccc1oc(C(O)c3ccccc3)cc12 (stereo not drawn) [Compound 226]
37 | 101 to 999 nM | Cc1cc(=O)oc2c1ccc1oc(C(=O)c3cccc(OCCN4CCN(C)CC4)c3)c(-c3ccccc3)c12 [Compound 89]
38 | 101 to 999 nM | COc1ccccc1C(=O)c1oc2ccc3c(C)cc(=O)oc3c2c1-c1ccc(Br)cc1 [Compound 219]
39 | 101 to 999 nM | Cc1cc(=O)oc2c1ccc1oc(C(=O)c3cc(F)ccc3F)c(-c3ccccc3)c12 [Compound 61]
40 | 101 to 999 nM | Cc1cc(=O)oc2c1ccc1oc(C(=O)c3ccccc3)c(-c3cccc(Cl)c3)c12 [Compound 136]
41 | 101 to 999 nM | Cc1cc(=O)oc2c1ccc1oc(C(=O)c3ccc(F)cc3)c(-c3ccc(Br)cc3)c12 [Compound 209]
42 | 101 to 999 nM | Cc1cc(=O)oc2c1ccc1oc(C(=O)c3cccc(OCCOCCOCCO)c3)c(-c3ccccc3)c12 [Compound 177]
43 | 101 to 999 nM | O=Cc1cc(=O)oc2c1ccc1oc(C(=O)c3ccccc3)c(-c3ccccc3)c12 [Compound 10]
44 | 101 to 999 nM | Cc1cc(=O)oc2c1ccc1oc(C(=O)c3ccc([N+](=O)[O-])cc3)c(-c3ccccc3)c12 [Compound 51]
45 | 101 to 999 nM | O=C(c1ccccc1)c1oc2ccc3ccc(=O)oc3c2c1-c1ccccc1 [Compound 2]
46 | 101 to 999 nM | COc1ccc(-c2c(C(=O)c3ccccc3)oc3ccc4c(C)cc(=O)oc4c23)cc1 [Compound 248]
47 | 101 to 999 nM | Cc1cc(=O)oc2c1ccc1oc(C(=O)c3cccc(OCCO)c3)c(-c3ccccc3)c12 [Compound 184]
48 | 101 to 999 nM | Cc1cc(=O)oc2c1ccc1oc(C(=O)c3cccc(Cl)c3)c(-c3ccc(Br)cc3)c12 [Compound 217]
49 | 101 to 999 nM | Cc1cc(=O)oc2c1ccc1oc(C(=O)c3cccc(C(F)(F)F)c3)c(-c3ccccc3)c12 [Compound 36]
50 | 101 to 999 nM | CCCOc1cccc(C(=O)c2oc3ccc4c(C)cc(=O)oc4c3c2-c2ccc(Br)cc2)c1 [Compound 253]
51 | 101 to 999 nM | Cc1cc(=O)oc2c1ccc1oc(C(=O)c3cccc(C#N)c3)c(-c3ccccc3)c12 [Compound 42]
52 | 101 to 999 nM | Cc1cc(=O)oc2c1ccc1oc(C(=O)c3ccc(N(C)C)cc3)c(-c3ccccc3)c12 [Compound 264]
53 | 101 to 999 nM | Cc1cc(=O)oc2c1ccc1oc(C(=O)c3ccc(Br)s3)c(-c3ccccc3)c12 [Compound 98]
54 | 101 to 999 nM | Cc1cc(=O)oc2c1ccc1oc(C(=O)c3ccccc3)c(C3CCCCC3)c12 [Compound 165]
55 | 101 to 999 nM | Cc1cc(=O)oc2c1ccc1oc(C(=O)c3cccc([N+](=O)[O-])c3)c(-c3ccccc3)c12 [Compound 66]
56 | 101 to 999 nM | Cc1cc(=O)oc2c1ccc1oc(Cc3ccccc3)c(-c3ccccc3)c12 [Compound 173]
57 | 101 to 999 nM | CCCCCCc1c(C(=O)c2ccccc2)oc2ccc3c(C)cc(=O)oc3c12 [Compound 157]
